Laboratory results from ChEMBL document CHEMBL5223162, “Discovery of Pyrazolopyridine Derivatives as HPK1 Inhibitors” (ACS Med Chem Lett, 2023).

Legend:
[1] = molecular target: T1, Mitogen-activated protein kinase kinase kinase kinase 1 (Homo sapiens, UniProt Q92918); test: Binding affinity to recombinant human HPK1 (1 to 346 residues) expressed sf9 cells incubated for 1 hr by LanthaScreen assay
[2] = molecular target: T1, Mitogen-activated protein kinase kinase kinase kinase 1; test: Inhibition of human HPK1 in human Jurkat cells assessed as reduction in SLP76 phosphorylation incubated for 1 hr by HTRF assay; format: cell-based
[3] = Volume of distribution at steady state in cynomolgus monkey at 1 mg/kg, iv and measured upto 24 hrs by LC-MS/MS analysis; format: ADME, organism-based, Macaca fascicularis; details: in vivo
[4] = AUC in Sprague-Dawley rat at 3 mg/kg, po and measured upto 24 hrs by LC-MS/MS analysis; format: ADME, organism-based; set-up: dose 3 mg/kg, time < 24 hrs, route po; details: in vivo
[5] = Permeability across apical to basolateral side in human Caco2 cells at 50 uM and measured after 120 mins by LC-MS analysis; format: ADME, cell-based; details: Caco-2, read-out: permeability
[6] = Clearance in Sprague-Dawley rat at 1.5 mg/kg, iv and measured upto 24 hrs by LC-MS/MS analysis; format: ADME, organism-based; details: in vivo
[7] = AUC in cynomolgus monkey at 3 mg/kg, po and measured upto 24 hrs by LC-MS/MS analysis; format: ADME, organism-based, Macaca fascicularis; set-up: dose 3 mg/kg, time < 24 hrs, route po; details: in vivo
[8] = Fraction unbound in human plasma by LC-MS/MS analysis; format: ADME, cell-free
[9] = Half life in cynomolgus monkey at 1 mg/kg, iv and measured upto 24 hrs by LC-MS/MS analysis; format: ADME, organism-based, Macaca fascicularis; details: in vivo
[10] = Intrinsic clearance in human liver microsomes at 1 uM and measured upto 30 mins in presence of NADPH by LC-MS analysis; format: ADME, Microsome; details: read-out: CLH (converted)
[11] = Oral bioavailability in cynomolgus monkey at 3 mg/kg and measured upto 24 hrs by LC-MS/MS analysis; format: ADME, organism-based, Macaca fascicularis; details: in vivo
[12] = Clearance in cynomolgus monkey at 1 mg/kg, iv and measured upto 24 hrs by LC-MS/MS analysis; format: ADME, organism-based, Macaca fascicularis; details: in vivo
Cytochrome P450 3A4 [13] = molecular target: T2, Cytochrome P450 3A4 (Homo sapiens, UniProt P08684); test: Inhibition of CYP3A4 in human liver microsomes using midazolam as substrate by LC-MS analysis; format: ADME, Microsome
[14] = molecular target: T3, Receptor-type tyrosine-protein kinase FLT3 (Homo sapiens, UniProt P36888); test: Inhibition of FLT3 (unknown origin) in presence of ATP
T3 sequence (P36888 whole entry): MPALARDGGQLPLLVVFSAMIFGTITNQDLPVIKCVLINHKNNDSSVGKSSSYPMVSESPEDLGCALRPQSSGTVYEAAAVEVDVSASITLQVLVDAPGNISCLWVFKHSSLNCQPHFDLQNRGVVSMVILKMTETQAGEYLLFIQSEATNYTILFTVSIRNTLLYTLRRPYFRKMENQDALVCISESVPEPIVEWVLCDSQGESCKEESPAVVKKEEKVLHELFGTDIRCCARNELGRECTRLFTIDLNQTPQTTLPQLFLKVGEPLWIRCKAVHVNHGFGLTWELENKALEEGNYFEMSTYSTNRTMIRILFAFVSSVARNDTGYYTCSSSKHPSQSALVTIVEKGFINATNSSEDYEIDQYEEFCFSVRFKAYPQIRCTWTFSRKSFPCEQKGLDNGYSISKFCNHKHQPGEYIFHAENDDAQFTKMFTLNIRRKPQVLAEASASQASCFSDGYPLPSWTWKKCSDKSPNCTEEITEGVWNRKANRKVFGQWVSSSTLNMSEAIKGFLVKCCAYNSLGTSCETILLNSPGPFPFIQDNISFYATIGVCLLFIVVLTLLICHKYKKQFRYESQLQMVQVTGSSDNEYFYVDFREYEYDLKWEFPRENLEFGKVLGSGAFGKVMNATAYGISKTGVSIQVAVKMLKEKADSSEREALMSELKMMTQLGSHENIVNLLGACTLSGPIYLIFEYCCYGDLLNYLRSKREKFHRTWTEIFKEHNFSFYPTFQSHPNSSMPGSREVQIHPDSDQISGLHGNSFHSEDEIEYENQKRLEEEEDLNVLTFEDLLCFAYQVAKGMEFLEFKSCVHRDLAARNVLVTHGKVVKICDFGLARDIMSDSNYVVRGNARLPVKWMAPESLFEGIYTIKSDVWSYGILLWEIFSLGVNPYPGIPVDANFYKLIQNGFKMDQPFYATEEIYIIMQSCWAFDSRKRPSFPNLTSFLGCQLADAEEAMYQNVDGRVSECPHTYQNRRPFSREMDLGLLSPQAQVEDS

[15] = molecular target: Mast/stem cell growth factor receptor Kit (Homo sapiens, UniProt P10721); test: Inhibition of KIT (unknown origin) in presence of ATP
Cytochrome P450 3A4 [16] = molecular target: T2, Cytochrome P450 3A4; test: Inhibition of CYP3A4 in human liver microsomes using testosterone as substrate by LC-MS analysis; format: ADME, Microsome
Cytochrome P450 2C19 = Cytochrome P450 2C19 (Homo sapiens, UniProt P33261); test: Time dependent inhibition of CYP2C19 in human liver microsomes using S mephenytoin as substrate by LC-MS analysis; format: ADME, Microsome; details: TDE = time-dependent effect
Chain of Cytochrome P450 2C19 (P33261 whole entry): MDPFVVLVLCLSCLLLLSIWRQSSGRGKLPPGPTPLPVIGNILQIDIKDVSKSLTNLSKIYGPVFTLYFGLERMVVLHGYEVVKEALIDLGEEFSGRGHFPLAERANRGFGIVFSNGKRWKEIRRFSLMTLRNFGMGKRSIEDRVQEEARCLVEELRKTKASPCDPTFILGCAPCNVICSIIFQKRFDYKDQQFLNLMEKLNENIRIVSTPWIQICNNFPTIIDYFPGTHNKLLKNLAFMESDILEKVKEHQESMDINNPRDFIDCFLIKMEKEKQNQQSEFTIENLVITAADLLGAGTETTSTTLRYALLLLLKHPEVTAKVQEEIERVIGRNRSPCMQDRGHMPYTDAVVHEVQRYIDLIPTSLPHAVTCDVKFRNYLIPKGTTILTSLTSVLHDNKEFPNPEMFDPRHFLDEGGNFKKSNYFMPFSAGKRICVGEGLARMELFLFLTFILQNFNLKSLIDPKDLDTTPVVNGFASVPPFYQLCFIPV

Chain of Mast/stem cell growth factor receptor Kit (P10721 whole entry): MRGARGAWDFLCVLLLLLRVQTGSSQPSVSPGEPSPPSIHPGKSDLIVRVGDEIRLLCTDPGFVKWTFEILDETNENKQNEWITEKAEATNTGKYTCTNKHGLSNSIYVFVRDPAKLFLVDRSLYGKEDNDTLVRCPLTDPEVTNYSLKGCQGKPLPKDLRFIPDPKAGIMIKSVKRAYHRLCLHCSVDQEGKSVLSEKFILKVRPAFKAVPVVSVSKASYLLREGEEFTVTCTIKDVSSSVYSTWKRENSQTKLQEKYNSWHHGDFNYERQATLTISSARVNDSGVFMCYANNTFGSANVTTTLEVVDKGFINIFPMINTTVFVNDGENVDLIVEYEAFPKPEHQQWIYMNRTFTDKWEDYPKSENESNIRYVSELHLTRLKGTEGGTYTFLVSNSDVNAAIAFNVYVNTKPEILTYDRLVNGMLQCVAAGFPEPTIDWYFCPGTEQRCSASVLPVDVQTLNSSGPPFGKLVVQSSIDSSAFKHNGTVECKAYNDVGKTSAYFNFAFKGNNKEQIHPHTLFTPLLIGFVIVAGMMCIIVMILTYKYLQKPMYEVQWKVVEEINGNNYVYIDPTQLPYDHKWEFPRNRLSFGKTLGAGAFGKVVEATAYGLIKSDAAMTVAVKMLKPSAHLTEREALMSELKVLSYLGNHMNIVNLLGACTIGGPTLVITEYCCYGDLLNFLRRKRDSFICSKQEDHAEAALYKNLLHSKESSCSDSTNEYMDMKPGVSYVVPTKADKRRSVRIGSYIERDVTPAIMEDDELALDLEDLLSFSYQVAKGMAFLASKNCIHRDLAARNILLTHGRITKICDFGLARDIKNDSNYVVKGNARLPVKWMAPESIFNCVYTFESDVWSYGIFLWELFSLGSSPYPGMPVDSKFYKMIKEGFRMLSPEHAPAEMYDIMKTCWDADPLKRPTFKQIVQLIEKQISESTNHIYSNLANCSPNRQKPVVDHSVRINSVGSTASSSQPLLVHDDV
T2 sequence (P08684 whole entry): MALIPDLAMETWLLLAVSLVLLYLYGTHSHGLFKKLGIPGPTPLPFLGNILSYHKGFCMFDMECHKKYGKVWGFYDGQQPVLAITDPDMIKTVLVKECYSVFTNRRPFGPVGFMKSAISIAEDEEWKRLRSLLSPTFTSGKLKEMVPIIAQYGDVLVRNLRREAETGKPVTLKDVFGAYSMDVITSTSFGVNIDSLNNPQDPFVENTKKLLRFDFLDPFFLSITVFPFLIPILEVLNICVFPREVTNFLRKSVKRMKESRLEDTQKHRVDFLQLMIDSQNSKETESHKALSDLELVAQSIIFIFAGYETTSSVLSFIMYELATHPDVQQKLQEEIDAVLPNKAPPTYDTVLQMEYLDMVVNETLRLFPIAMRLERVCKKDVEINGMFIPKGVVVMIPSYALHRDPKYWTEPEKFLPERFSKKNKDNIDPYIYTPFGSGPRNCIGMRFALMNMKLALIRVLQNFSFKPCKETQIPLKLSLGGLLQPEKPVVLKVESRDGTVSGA
T1 sequence (Q92918 whole entry, the tested form may be a part): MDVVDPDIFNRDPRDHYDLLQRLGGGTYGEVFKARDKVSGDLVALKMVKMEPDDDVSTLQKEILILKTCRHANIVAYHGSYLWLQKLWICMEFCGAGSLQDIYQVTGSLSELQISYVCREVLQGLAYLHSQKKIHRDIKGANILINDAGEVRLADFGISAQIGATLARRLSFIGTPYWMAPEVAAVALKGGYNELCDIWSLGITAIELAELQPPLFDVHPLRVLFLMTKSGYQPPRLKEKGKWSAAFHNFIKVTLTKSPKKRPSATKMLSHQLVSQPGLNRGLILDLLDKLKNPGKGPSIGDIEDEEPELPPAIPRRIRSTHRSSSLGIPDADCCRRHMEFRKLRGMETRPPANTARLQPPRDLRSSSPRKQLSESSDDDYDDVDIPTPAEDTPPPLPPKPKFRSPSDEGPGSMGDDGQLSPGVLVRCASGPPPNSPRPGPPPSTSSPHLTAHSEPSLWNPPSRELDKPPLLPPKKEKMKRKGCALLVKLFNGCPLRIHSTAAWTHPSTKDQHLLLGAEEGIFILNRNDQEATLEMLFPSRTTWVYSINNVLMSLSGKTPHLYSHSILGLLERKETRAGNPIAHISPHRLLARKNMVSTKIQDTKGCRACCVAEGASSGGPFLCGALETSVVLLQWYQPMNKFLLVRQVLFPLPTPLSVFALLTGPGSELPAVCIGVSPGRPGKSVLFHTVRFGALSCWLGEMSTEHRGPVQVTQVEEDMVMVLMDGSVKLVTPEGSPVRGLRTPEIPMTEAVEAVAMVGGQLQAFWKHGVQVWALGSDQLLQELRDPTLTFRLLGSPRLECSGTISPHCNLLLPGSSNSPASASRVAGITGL

In the case of `CN1CCN(c2ccc(-c3n[nH]c4ccc(-c5ccccc5F)nc34)cc2)CC1`, the Ki [1] is reported as 0.028 µM and the IC50 [2] is reported as 2.74 µM.
In the case of `CNC(C)c1cc(C)c(-c2cc3c(-c4cnn(C)c4)n[nH]c3cn2)c(F)c1` (configuration not stated), the Vdss [3] is reported as 7.6 L/kg, the AUC at 24 h [4] is reported as 799 nM·h and the Papp A→B at 2 h, 50 µM [5] is reported as 2 nm/s. It also gave a clearance [6] of 5.6 L/h/kg, an AUC at 24 h [7] of 3930 nM·h and a fraction unbound [8] of 0.49. The half-life [9] was 8.6 h, the Ki [1] was 0.004 µM and the CLint scaled at 1 µM [10] was under 0.5 L/h/kg. It also gave a bioavailability [11] of 50%, a clearance [12] of 1.1 L/h/kg and an IC50 [2] of 0.094 µM.
Work on `CN1CCN(c2ccc(-c3n[nH]c4ccc(-c5ccccc5)nc34)cc2)CC1` yielded a Ki [1] of 0.223 µM.
With `COc1cccc(F)c1-c1cc2c(-c3cnn(C)c3)n[nH]c2cn1` the Ki [1] was 0.002 µM, the CLint scaled at 1 µM [10] was 0.8 L/h/kg and the IC50 [2] was 0.148 µM.
In the case of `COc1cc(OC)c(F)c(-c2ncc3c(-c4ccc(N5CCN(C)CC5)cc4)n[nH]c3n2)c1F`, the Ki [1] is reported as 0.091 µM.
`CNCc1cc(F)c(-c2cc3c(-c4cnn(C)c4)n[nH]c3cn2)c(F)c1` gave a Papp A→B at 2 h, 50 µM [5] of 7 nm/s, an IC50 (Cytochrome P450 3A4 [13]) of over 25 µM and an IC50 [14] of 0.366 µM. It also gave a Ki [1] of 0.0054 µM, a CLint scaled at 1 µM [10] of under 0.5 L/h/kg and an IC50 [15] of 1.08 µM. For the same compound, the IC50 (Cytochrome P450 3A4 [16]) was over 25 µM and the IC50 [2] was 0.117 µM.
In the case of `CCNCc1cc(C)c(-c2cc3c(-c4cnn(C)c4)n[nH]c3cn2)c(F)c1`, the Vdss [3] is reported as 3.9 L/kg, the AUC at 24 h [4] is reported as 761 nM·h and the Papp A→B at 2 h, 50 µM [5] is reported as 14 nm/s. It also gave a clearance [6] of 6.1 L/h/kg, an AUC at 24 h [7] of 1640 nM·h and a fraction unbound [8] of 0.61. For the same compound, the half-life [9] was 6.3 h, the Ki [1] was 0.005 µM and the CLint scaled at 1 µM [10] was under 0.5 L/h/kg. The bioavailability [11] was 16%, the clearance [12] was 0.66 L/h/kg and the IC50 [2] was 0.137 µM.
Compound `COc1cccc(F)c1-c1ncc2[nH]nc(-c3cnn(C)c3)c2n1` has a Ki [1] of 0.012 µM, a CLint scaled at 1 µM [10] of 0.7 L/h/kg and an IC50 [2] of 0.64 µM.
Compound `COc1cccc(F)c1-c1cc2c(-c3ccc(N4CCN(C)CC4)cc3)n[nH]c2cn1` has a Ki [1] of under 0.001 µM, a CLint scaled at 1 µM [10] of 1.1 L/h/kg and an IC50 [2] of 0.144 µM.
Compound `CN1CCN(c2ccc(-c3n[nH]c4cc(-c5ccccc5)cnc34)cc2)CC1` has a Ki [1] of 1.15 µM.
For `Cc1cc(C2CCCCN2)cc(F)c1-c1cc2c(-c3cnn(C)c3)n[nH]c2cn1` (configuration not stated), the Vdss [3] was 4.6 L/kg, the AUC at 24 h [4] was 1460 nM·h and the Papp A→B at 2 h, 50 µM [5] was 4 nm/s. For the same compound, the clearance [6] was 4.8 L/h/kg, the AUC at 24 h [7] was 7840 nM·h and the fraction unbound [8] was 0.5. The half-life [9] was 8.9 h, the Ki [1] was 0.0046 µM and the CLint scaled at 1 µM [10] was under 0.5 L/h/kg. It also gave a bioavailability [11] of 55%, a clearance [12] of 0.54 L/h/kg and an IC50 [2] of 0.138 µM.
`COc1cccc(F)c1-c1ncc2[nH]nc(-c3ccc(N4CCN(C)CC4)cc3)c2n1` gave a Ki [1] of 0.0025 µM, a CLint scaled at 1 µM [10] of over 1.1 L/h/kg and an IC50 [2] of 0.258 µM.
With `CNCc1cc(F)c(-c2cc3c(-c4cnn(C)c4)n[nH]c3cn2)c(OC)c1` the Papp A→B at 2 h, 50 µM [5] was 2 nm/s, the IC50 [14] was 0.26 µM and the Ki [1] was 0.003 µM. For the same compound, the CLint scaled at 1 µM [10] was under 0.5 L/h/kg, the IC50 [15] was 0.857 µM and the IC50 [2] was 0.219 µM.
For `CNCc1cc(F)c(-c2cc3c(-c4cnn(C)c4)n[nH]c3cn2)c(C(F)(F)F)c1`, the Papp A→B at 2 h, 50 µM [5] was 16 nm/s, the IC50 (Cytochrome P450 3A4 [13]) was over 25 µM and the “inhibition (INH)” value (Cytochrome P450 2C19) was “Tde”. The IC50 [14] was 2.23 µM, the Ki [1] was 0.0035 µM and the CLint scaled at 1 µM [10] was under 0.5 L/h/kg. It also gave an IC50 [15] of 1.98 µM, an IC50 (Cytochrome P450 3A4 [16]) of over 25 µM and an IC50 [2] of 0.128 µM.
`CNCc1cc(C)c(-c2cc3c(-c4cnn(C)c4)n[nH]c3cn2)c(F)c1` gave a Vdss [3] of 4.6 L/kg, an AUC at 24 h [4] of 456 nM·h and a Papp A→B at 2 h, 50 µM [5] of 11 nm/s. The clearance [6] was 7.1 L/h/kg, the AUC at 24 h [7] was 759 nM·h and the IC50 (Cytochrome P450 3A4 [13]) was over 25 µM. For the same compound, the fraction unbound [8] was 0.41, the half-life [9] was 5.5 h and the “inhibition (INH)” value (Cytochrome P450 2C19) was “Tde”. It also gave an IC50 [14] of 1.51 µM, a Ki [1] of 0.0027 µM and a CLint scaled at 1 µM [10] of under 0.5 L/h/kg. The bioavailability [11] was 7%, the IC50 [15] was 7.47 µM and the IC50 (Cytochrome P450 3A4 [16]) was over 25 µM. The clearance [12] was 1.2 L/h/kg and the IC50 [2] was 0.091 µM.
`COc1cccc(F)c1-c1ccc2[nH]nc(-c3ccc(N4CCN(C)CC4)cc3)c2n1` gave a Ki [1] of 0.003 µM, a CLint scaled at 1 µM [10] of over 1.1 L/h/kg and an IC50 [2] of 0.395 µM.
`CN1CCN(c2ccc(Nc3ncc4ccc(-c5ccccc5)cc4n3)cc2)CC1` gave a Ki [1] of 0.492 µM.
